Where a name gives a salt, the structure may show the parent alone.

The first assay concerns the target T1, BRD4 BD2 (Homo sapiens, UniProt O60885, Y97A).
T1 construct: BRD4 (1-477) (Y97A) and (Y390A); made in house; host or cells: E. coli (pET15b vector)
The assay is described as follows: BRD4 BD2 mutant TR-FRET competition assay. It is filed as binding. The following applies: average of N recorded values, read-out: BRD4 BD2 IC50 (average value) (converted). (In general: In TR-FRET formats the signal depends on donor and acceptor labels being close together.)
As to `CNC(=O)c1cc(C(=O)NCCC[C@H]2OC[C@H](N)CO2)cn(Cc2ccccc2)c1=O` [Example 88, N^5-(3-((2r,5r)-5-Amino-1,3-dioxan-2-yl)propyl)-1-benzyl-N^3-methyl-2-oxo-1,2-dihydropyridine-3,5-dicarboxamide], the IC50 is 50.1 nM.

Staying with this assay, now noted: read-out: pIC50 in the BRD4 BD2 assay (converted).
With `CNC(=O)c1cc(C(=O)N[C@H]2[C@@H]3CN(C(C)=O)C[C@@H]32)cn(Cc2cccc3[nH]ccc23)c1=O` [Example 81, 1-((1H-Indol-4-yl)methyl)-N^5-((1R,5S,6s)-3-acetyl-3-azabicyclo[3.1.0]hexan-6-yl)-N^3-methyl-2-oxo-1,2-dihydropyridine-3,5-dicarboxamide], the IC50 was no more than 100 nM.

On to `CCNC(=O)c1cc(C(=O)NCCC[C@]2(F)CCCNC2)cn(Cc2ccccc2)c1=O` [Example 82], for which the IC50 was no more than 100 nM.

As for `CCNC(=O)c1cc(C(=O)NCC[C@@H]2CNCCO2)cn(Cc2ccccc2)c1=O` [Example 83, (R)-1-benzyl-N^3-ethyl-N^5-(2-(morpholin-2-yl)ethyl)-2-oxo-1,2-dihydropyridine-3,5-dicarboxamide], the IC50 is 100 to 1000 nM.

As for `CCNC(=O)c1cc(C(=O)NCCC[C@@H]2CNCCO2)cn(Cc2ccccc2)c1=O` [Example 84, (R)-1-benzyl-N^3-ethyl-N^5-(3-(morpholin-2-yl)propyl)-2-oxo-1,2-dihydropyridine-3,5-dicarboxamide], the IC50 was no more than 100 nM.

Turning to `CNC(=O)c1cc(C(=O)N[C@H]2[C@@H]3CN(CCNC(=O)OC(C)(C)C)C[C@@H]32)cn(Cc2cccc3[nH]ccc23)c1=O` [Example 85, tert-Butyl (2-((1R,5S,6s)-6-(1-((1H-indol-4-yl)methyl)-5-(methylcarbamoyl)-6-oxo-1,6-dihydropyridine-3-carboxamido)-3-azabicyclo[3.1.0]hexan-3-yl)ethyl)carbamate], the IC50 is no more than 100 nM.

For the compound `CNC(=O)c1cc(C(=O)N[C@H]2[C@@H]3CN(CCN)C[C@@H]32)cn(Cc2cccc3[nH]ccc23)c1=O` [Example 86, 1-((1H-Indol-4-yl)methyl)-N^5-((1R,5S,6s)-3-(2-aminoethyl)-3-azabicyclo[3.1.0]hexan-6-yl)-N^3-methyl-2-oxo-1,2-dihydropyridine-3,5-dicarboxamide], the IC50 was no more than 100 nM.

`CNC(=O)c1cc(C(=O)N[C@H]2[C@@H]3CN(CCNC(C)=O)C[C@@H]32)cn(Cc2cccc3[nH]ccc23)c1=O` [Example 87, 1-((1H-Indol-4-yl)methyl)-N^5-((1R,5S,6s)-3-(2-acetamidoethyl)-3-azabicyclo[3.1.0]hexan-6-yl)-N^3-methyl-2-oxo-1,2-dihydrouridine-3,5-dicarboxamide]: the IC50 is no more than 100 nM.

As for `CNC(=O)c1cc(C(=O)NCCC[C@H]2OC[C@H](N)CO2)cn(Cc2ccccc2)c1=O` [Example 88, N^5-(3-((2r,5r)-5-Amino-1,3-dioxan-2-yl)propyl)-1-benzyl-N^3-methyl-2-oxo-1,2-dihydropyridine-3,5-dicarboxamide], the IC50 is no more than 100 nM.

As for `CNC(=O)c1cc(C(=O)NCCOC2CCNCC2)cn(Cc2ccccc2)c1=O` [Example 89, 1-benzyl-N^3-methyl-2-oxo-N^5-(2-(piperidin-4-yloxy)ethyl)-1,2-dihydropyridine-3,5-dicarboxamide hydrochloride], the IC50 was 100 to 1000 nM.

As for `CNC(=O)c1cc(C(=O)NC2CN(S(C)(=O)=O)C2)cn(Cc2ccccc2)c1=O` [Example 90, 1-benzyl-N^3-methyl-N^5-(1-(methylsulfonyl)azetidin-3-yl)-2-oxo-1,2-dihydropyridine-3,5-dicarboxamide], the IC50 is 100 to 1000 nM.

Take `CNC(=O)c1cc(C(=O)NC2COC2)cn(Cc2ccccc2)c1=O` [Example 91, 1-benzyl-N^3-methyl-N^5-(oxetan-3-yl)-2-oxo-1,2-dihydropyridine-3,5-dicarboxamide]: the IC50 was 100 to 1000 nM.

The test system of another assay is BET family (BRD2, BRD3, BRD4 and BRDT) tandem bromodomain proteins. The experiment in a line: Fluorescence Polarisation binding of Reference Compound X to single and double mutant tandem BET proteins. On the set-up: species or system Human. The following applies: double mutant tandem proteins versus non mutated, wild type tandem BET proteins. Here is the method: The competition of the compounds of formula (I) with Reference Compound X for binding to the BET family (BRD2, BRD3, BRD4 and BRDT) was assessed using protein truncates spanning both bromodomain 1 (BD1) and bromodomain 2 (BD2). In order to monitor differential binding to either BD1 or BD2, single residue mutations of key tyrosines to alanine were made in the acetyl lysine binding pockets. To validate this approach, a double residue mutant tandem domain protein was produced for each of the BET family members. Utilising a Fluorescence Polarisation approach, binding affinities for each of the single and double mutants for Reference Compound X were determined. […] The affinities of the single mutated bromdomain tandem proteins for Reference Compound X were equi-potent with the corresponding non-mutated BET protein. […] In the TR-FRET competition assay, Reference Compound X is used at a concentration that is equivalent to the Kd for the non-mutated bromodomain, which ensures that no binding at the mutated bromodomain is detected. […]
Consider `COc1ccc2c(c1)C(c1ccc(Cl)cc1)=N[C@@H](CC(=O)NCCCCCNC(=O)CCCCCC1(C)/C(=C/C=C/C=C/C3=[N+](CCCCS(=O)(=O)O)c4ccc(S(=O)(=O)O)cc4C3(C)C)N(CCCCS(=O)(=O)[O-])c3ccc(S(=O)(=O)O)cc31)c1nnc(C)n1-2` (some centres unmarked) [Reference Compound X], for which the “reduction in Kd” value is on record as greater than 1000 fold.

Still in this assay, the particulars now being: single mutations of Tyrosine to Alanine.
As for `COc1ccc2c(c1)C(c1ccc(Cl)cc1)=N[C@@H](CC(=O)NCCCCCNC(=O)CCCCCC1(C)/C(=C/C=C/C=C/C3=[N+](CCCCS(=O)(=O)O)c4ccc(S(=O)(=O)O)cc4C3(C)C)N(CCCCS(=O)(=O)[O-])c3ccc(S(=O)(=O)O)cc31)c1nnc(C)n1-2` (some centres unmarked) [Reference Compound X], the “reduction of the Kd of the interaction between the mutated bromodomain and Reference Compound X” value is given as greater than 1000 fold.
